Measured values taken from paper PMC11574108, “4-Furanylvinylquinoline derivative as a new scaffold for the design of oxidative stress initiator and glucose transporter inhibitor drugs” (Scientific Reports, 2024).

Tests used:
HCT 116 p53+/+ = assay: Monolayer antiproliferative MTS assay; format: cell-based, human; conditions: 2D monolayer; for IC50: MTS, 72-h incubation
Excerpt: (§1) The human colon carcinoma cell line HCT 116 with wild-type p53 (p53^+/+) and the human glioblastoma cell line U-251 were obtained from ATCC, while the HCT 116 with a p53 deletion (p53^−/−) was kindly provided by Prof. M. Rusin from the Maria Sklodowska-Curie Memorial Cancer Center and Institute of Oncology in Gliwice, Poland. The human chronic myelogenous leukaemia cell line K562 and the normal human cell dermal fibroblast cell line NHDF were purchased from Sigma-Aldrich and PromoCell, respectively. Both the HCT 116 and U-251 cell lines were cultured in Dulbecco’s modified Eagle’s medium (DMEM) supplemented with 10% inactivated foetal bovine serum (FBS). The DMEM for the NHDF contained 15% non-inactivated FBS. K562 cells were cultured in RPMI medium completed by 10% inactivated FBS. Additionally, the media were supplemented with antibiotics (streptomycin and penicillin – 1% v/v; Sigma-Aldrich). The cell culture was conducted in 75 cm^2 flasks (Nunc) under standard conditions (37 °C, 5% CO2 humidified atmosphere). Furthermore, the cell lines were frequently tested for mycoplasma using the qRT-PCR technique with specific Mycoplasma primers to confirm the lack of contamination.
(§2) The cells were seeded in 96-well plates (Nunc) with 5,000 or 4,000 cells per well for the cancer cells and NHDF, respectively, and incubated under standard conditions at 37 °C overnight. The culture media were then changed for freshly prepared solutions of the tested compounds in various concentrations. After 72-h incubation the antiproliferative assay was carried out as follows: the solutions of the compounds were changed in each well to 100 µL DMEM without phenol red and 20 µL of CellTiter 96 AQueous One Solution-MTS (Promega). The plates were incubated for 1 h at 37 °C, and the absorbance was then measured at 490 nm using a multi-plate reader (Synergy 4, BioTek). The experiment for each sample was repeated at least three times.
(§3) Additionally, the compounds were also tested for their cytotoxicity against normal cells – human dermal fibroblasts (NHDF).

HCT 116 p53-/- = assay: Monolayer antiproliferative MTS assay; format: cell-based, human; conditions: 2D monolayer; for IC50: MTS, 72-h incubation
Excerpt: as §1, §2, §3

AsPC-1 spheroids = assay: 3D spheroid cell viability assay; format: cell-based; conditions: Homo sapiens, ASPC1; 3D spheroids, CellTiter-Glo 3D, 72-h treatment; read-out: IC50 AsPC-1 (3D model)
Method: (§4) The HCT 116 cell lines, AsPC-1, PANC-1 (5,000), and U-251 cells (8,000) in 100 µL of medium were seeded in 96-well ULA Corning spheroid microplates (Sigma-Aldrich) and incubated for 72 h at 37 °C to form spheroids. The medium from each well was then gently removed and freshly prepared solutions of 13 were added. The treated spheroids were incubated for the next 72-h. Afterward, cell viability assays were performed using CellTiter-Glo 3D Reagent (Promega) according to the manufacturer’s protocol. Briefly, CellTiter-Glo 3D Reagent was added in equal volume to the medium in each well. The plate was vigorously mixed for 5 min and then incubated for 25 min at room temperature. The luminescence was measured using a multiplate reader (Synergy 4, BioTek). The experiment for each sample was performed at least three times. The results from the assay are presented as IC50 values, which were calculated using GraphPad Prism v.8.0 (USA).
(§5) To confirm the cytotoxicity ranking, the viability of the cells was also estimated on a 3D spheroid model, which better represented a solid tumour. […] The cell lines that represented pancreatic cancer were less responsive to derivative 13, which was similar to the 2D model. […] However, the activity of derivative 13 was confirmed on the 3D model that reflected a real tumour, which is undoubtedly a positive result and a reason for further, more in-depth studies to clarify the mechanism of action of the 4-furanylvinylquinoline derivative 13.

HCT 116 p53-/- spheroids = assay: 3D spheroid cell viability assay; format: cell-based; conditions: Homo sapiens, HCT-116, 72 h, 3D spheroids, CellTiter-Glo 3D, 72-h treatment; read-out: IC50 HCT 116 p53-/- (3D model)
Method: as §4, §5

PANC-1 spheroids = assay: 3D spheroid cell viability assay; format: cell-based; conditions: Homo sapiens, 3D spheroids, CellTiter-Glo 3D, 72-h treatment, read-out: IC50 PANC-1 (3D model)
Method: as §4, §5

U-251 spheroids = assay: 3D spheroid cell viability assay; format: cell-based; conditions: Homo sapiens, 3D spheroids, CellTiter-Glo 3D, 72-h treatment, read-out: IC50 U-251 (3D model)
Method: as §4, §5

GLUT-1 = assay: qRT-PCR, GLUT-1 mRNA expression; format: cell-based, human; conditions: HCT 116 p53-/-, 24 and 48 h
Method: The cells were seeded in 35 mm Petri dishes at a density of 500,000 cells and incubated at 37 °C for 24 h. The total RNA was isolated after incubation with solutions of 13 (0.5 µM and 1.0 µM) for 24 h and 48 h, respectively. The isolation from the samples was carried out according to a TRIzol™ Reagent protocol (Thermo Fisher Scientific). Synthesis of cDNA was performed with 2 µg of total RNA using a GoScript™ Reverse Transcriptase kit (Promega) with Oligo(dT)23 Primers. Real-Time PCR was carried out using a CFX96 Touch™ Real-Time PCR Detection System (Bio-Rad) in 10 µL reaction volume. Each sample contained SsoAdvanced™ Universal SYBR Green Supermix (Bio Rad), a specific primer pair mix (0.5 µM each), and 1 µL of cDNA. […] The obtained data were analysed based on a comparison of the expression of the target genes and normalized to a reference gene (GAPDH) using the Livak-Schmittgen (2^−ΔΔCT) method. […]
To verify the effect of derivative 13 on glucose transporters at the mRNA level, the expression of the genes encoding the best-characterised glucose transporters in cells was quantified in real-time. In addition to GLUT-1, the effect of the tested derivative on changes in the expression of GLUT-3 and GLUT-4 was also evaluated (Fig. 8). […]

For `O=[N+]([O-])c1ccc(/C=C/c2ccnc3ccccc23)o1` [Compound 13], which IC50 (HCT 116 p53+/+) is on record?
The IC50 was 69 ± 9 nM.

And the “SI (selectivity index) HCT 116 p53+/+” value (HCT 116 p53+/+; relative to NHDF)?
Its value is 9.41.

What about the IC50 (HCT 116 p53+/+; Homo sapiens, HCT-116, 72 h) of the same molecule?
Its IC50 is less than 100 nM.

And the IC50 (HCT 116 p53-/-)?
The IC50 was 94 ± 10 nM.

What about the “SI (selectivity index) HCT 116 p53-/-” value (HCT 116 p53-/-; relative to NHDF) of the same molecule?
The value was 6.90.

And the IC50 (HCT 116 p53-/-; Homo sapiens, HCT-116, 72 h)?
Its IC50 is less than 100 nM.

What about the IC50 (AsPC-1 spheroids) of the same molecule?
Its IC50 is 4180 ± 1000 nM.

And the IC50 (HCT 116 p53-/- spheroids)?
Its IC50 is roughly 1000 nM.

What about the IC50 (PANC-1 spheroids) of the same molecule?
Its IC50 is 2160 ± 370 nM.

And the IC50 (U-251 spheroids)?
Its IC50 is 340 ± 70 nM.

What about the “GLUT-1 mRNA level vs control” value (GLUT-1) of the same molecule?
Its value is “significant decrease”.
